Experimental findings from ChEMBL document CHEMBL1287767, “Experimental solubility profiling of marketed CNS drugs, exploring solubility limit of CNS discovery candidate” (Bioorg Med Chem Lett, 2010) are described below.

Values after ≈ are worked out from the molar mass of the structure shown.

One series in a line: Solubility of the compound in 0.1 M phosphate buffer at 600 uM at pH 7.4 after 24 hrs by LC/MS/MS analysis. The note with it: 0.1 M phosphate buffer, pH 7.4.
One may read the solubility as the dissolved amount per volume that the medium holds. For the molecule `CNS(=O)(=O)CCc1ccc2[nH]cc(C3CCN(C)CC3)c2c1`, the solubility at 24 h, 600 µM was greater than 500 µM.

In turn, `CNS(=O)(=O)Cc1ccc2[nH]cc(CCN(C)C)c2c1` showed a solubility at 24 h, 600 µM greater than 500 µM.

In the case of `CN1CCC[C@@H]1Cc1c[nH]c2ccc(CCS(=O)(=O)c3ccccc3)cc12`, the solubility at 24 h, 600 µM was greater than 500 µM.

Regarding `CCN(CC)C(=O)C1(c2ccccc2)CC1CN` (stereo not drawn), the solubility at 24 h, 600 µM is greater than 500 µM.

In turn, `COc1ccc(C(=O)N2CCCC2=O)cc1` yielded a solubility at 24 h, 600 µM of 500 µM (≈ 110 µg/mL).

`CCN1CCCC1CNC(=O)c1cc(S(=O)(=O)CC)c(N)cc1OC` (stereo not drawn) [AMISULPRIDE] registered a solubility at 24 h, 600 µM greater than 500 µM.

As to `CC(N)Cc1ccccc1` (stereo not drawn) [AMPHETAMINE], the solubility at 24 h, 600 µM was greater than 500 µM.

On to `O=C1CCc2ccc(OCCCCN3CCN(c4cccc(Cl)c4Cl)CC3)cc2N1` [ARIPIPRAZOLE], for which the solubility at 24 h, 600 µM turned out to be 1.03 µM (≈ 0.462 µg/mL).

As for `CNCC[C@@H](Oc1ccccc1C)c1ccccc1` [ATOMOXETINE], the solubility at 24 h, 600 µM was greater than 500 µM.

Molecule `O=C1CN=C(c2ccccn2)c2cc(Br)ccc2N1` [BROMAZEPAM] displayed a solubility at 24 h, 600 µM of 334 µM (≈ 106 µg/mL).

Take `O=C1CC2(CCCC2)CC(=O)N1CCCCN1CCN(c2ncccn2)CC1` [BUSPIRONE]: the solubility at 24 h, 600 µM is greater than 500 µM.

Consider `Oc1ccc2c(c1)[C@@]13CCCC[C@@]1(O)[C@@H](C2)N(CC1CCC1)CC3` [BUTORPHANOL], for which the solubility at 24 h, 600 µM is greater than 500 µM.

In the case of `NC(=O)N1c2ccccc2C=Cc2ccccc21` [CARBAMAZEPINE], the solubility at 24 h, 600 µM was greater than 490 µM.

As to `C[C@@](Cc1ccc(O)c(O)c1)(NN)C(=O)O.O` [CARBIDOPA], the solubility at 24 h, 600 µM is greater than 500 µM.

In turn, `CN(C)CCCC1(c2ccc(F)cc2)OCc2cc(C#N)ccc21` (stereo not drawn) [CITALOPRAM] showed a solubility at 24 h, 600 µM greater than 500 µM.

The molecule `O=C(O)C1N=C(c2ccccc2)c2cc(Cl)ccc2NC1=O` (stereo not drawn) [CLORAZEPIC ACID] came in with a solubility at 24 h, 600 µM greater than 495 µM.

`CN1CCN(C2=Nc3cc(Cl)ccc3Nc3ccccc32)CC1` [CLOZAPINE] showed a solubility at 24 h, 600 µM greater than 420 µM.

`CCN[C@@H](C)Cc1cccc(C(F)(F)F)c1` [DEXFENFLURAMINE]: the solubility at 24 h, 600 µM turned out to be 500 µM (≈ 116 µg/mL).

The molecule `CN1C[C@H](C(=O)N[C@]2(C)O[C@@]3(O)[C@@H]4CCCN4C(=O)[C@H](Cc4ccccc4)N3C2=O)C[C@@H]2c3cccc4[nH]cc(c34)C[C@H]21` [DIHYDROERGOTAMINE] came in with a solubility at 24 h, 600 µM of 37 µM (≈ 21.6 µg/mL). Against the preceding molecule, the solubility at 24 h, 600 µM is about 14-fold lower.

In turn, `O=C(O[C@@H]1C[C@@H]2C[C@H]3C[C@H](C1)N2CC3=O)c1c[nH]c2ccccc12` [DOLASETRON] registered a solubility at 24 h, 600 µM of 195 µM (≈ 63.3 µg/mL).

In the case of `CCCCCc1cc(O)c2c(c1)OC(C)(C)[C@@H]1CCC(C)=C[C@@H]21` [DRONABINOL], the solubility at 24 h, 600 µM was greater than 500 µM.

In turn, `CN(C)CCC[C@@]1(c2ccc(F)cc2)OCc2cc(C#N)ccc21` [ESCITALOPRAM] displayed a solubility at 24 h, 600 µM greater than 500 µM.

In the case of `CCc1cc2c(s1)-n1c(C)nnc1CN=C2c1ccccc1Cl` [ETIZOLAM], the solubility at 24 h, 600 µM was greater than 480 µM.

In turn, `NC(=O)OCC(COC(N)=O)c1ccccc1` [FELBAMATE] had a solubility at 24 h, 600 µM greater than 500 µM.

For the molecule `CN1C(=O)CN=C(c2ccccc2F)c2cc([N+](=O)[O-])ccc21` [FLUNITRAZEPAM], the solubility at 24 h, 600 µM worked out at 54 µM (≈ 16.9 µg/mL). This counts as double-digit micromolar.

`CCOC(=O)Nc1ccc(NCc2ccc(F)cc2)nc1N` [FLUPIRTINE] registered a solubility at 24 h, 600 µM greater than 500 µM.

In the case of `COCCCC/C(=N\OCCN)c1ccc(C(F)(F)F)cc1` [FLUVOXAMINE], the solubility at 24 h, 600 µM was greater than 500 µM.

Molecule `CN1C2CCCC1CC(NC(=O)c1nn(C)c3ccccc13)C2` (stereo not drawn) [GRANISETRON] had a solubility at 24 h, 600 µM greater than 500 µM.

For the molecule `O=C(c1ccccc1)c1ccc2n1CCC2C(=O)O` (stereo not drawn) [KETOROLAC], the solubility at 24 h, 600 µM is greater than 459 µM.

In turn, `OC[C@@H](O)CN1CCN(c2ccccc2)CC1` [LEVODROPROPIZINE] returned a solubility at 24 h, 600 µM greater than 500 µM.

`CCC1(c2cccc(O)c2)CCCCN(C)C1` (stereo not drawn) [MEPTAZINOL] had a solubility at 24 h, 600 µM greater than 500 µM.

With `COCC1CN=C(c2ccccc2Cl)c2cc(Br)ccc2N1C` (stereo not drawn) [METACLAZEPAM], the solubility at 24 h, 600 µM stood at 3.52 µM (≈ 1.39 µg/mL). In other words, the single-digit micromolar range.

Still in this series, the particulars now being: buffer, pH 7.4.
In turn, `CNCC[C@H](Oc1cccc2ccccc12)c1cccs1` [DULOXETINE] showed a solubility at 24 h, 600 µM greater than 500 µM.
